Assays:
Format in all cases: physicochemical, human
[1] = Storage stability of extract solution (frozen storage 71 days); settings: frozen 71 days, vs storage 0 days
Excerpt: A filter paper with added blood derived from a test subject is brought into contact with a solvent (extraction buffer) to obtain the solvent after contact (hereinafter may be abbreviated as extract solution), which storage stability was investigated.
A part of the blood extract solution (100% water) from the filter paper obtained and stored in Example 2 (15 days of chilled storage) and a part of the solution for LC-MS/MS measurement (water containing 67% acetonitrile) were frozen-stored. After 71 days of frozen storage, the supernatant of the former obtained by adding twice the amount of acetonitrile thereto, mixing and centrifuging (24,250×g, 10 minutes, 4° C.), and the supernatant of the latter obtained by centrifuging (24,250×g, 10 minutes, 4° C.) the solution after storage were both measured by LC-MS/MS under the same conditions as in Example 2.

[2] = Room temperature storage stability of NAD+ and NMN in blood spotted on filter paper (DBS, LC-MS/MS); settings: for Storage stability (mean): vs storage 0 days
Method: (§1) A filter paper, to which blood derived from a test subject is added (i.e., corresponding to a filter paper in Step 1 of the present invention), was searched for the optimal one for quantifying NAD+ and NMN when the filter paper with added blood derived from the test subject is stored at room temperature for a certain period of time.
A part of the blood spotted-filter paper prepared in Example 2 was sealed in a moisture absorption standard pouch (Moisture absorption-kun (registered trademark)/Maruto Sangyo Co., Ltd.) and then stored at room temperature. After storage at room temperature for 2 days, 1 week (7 days), or 2 weeks (15 days), the blood-spotted areas were cut out and collected in a 2 mL microtube. After performing the same treatment as in Example 2, measurement by LC-MS/MS was performed under the same conditions as in Example 2.

[3] = Chilled storage stability of NAD+ and NMN in blood spotted on filter paper (DBS, LC-MS/MS); settings: for Storage stability (mean): vs storage 0 days
Method: as §1, with “in the refrigerator” for “at room temperature”
From 5 subjects (adult men and women) per test, approximately 120 μL of blood (amount of 2 collection containers of the kit) was sampled by self-collection using an Micro Blood Collection Kit (Micro Blood Science Co., Ltd.), and was left to stand on ice until sample processing. The subjects were fasted on the morning of the sampling day, and samplings were performed around 9:00 am. The test was performed four times in total, with a total of 19 people performing evaluations, excluding one person due to insufficient sample blood volume.
The sampled blood was collected into 1.5 mL microtubes for each subject and mixed by gentle pipetting. Four types of filter papers (Whatman FTA DMPK-A Card/GE healthcare, QIAcard FTA DMPK-B Card/QIAGEN, QIAcard FTA DMPK-C Card/QIAGEN, Whatman 903 Protein saver card/Cytiva) were each spotted with 5 μL of blood (dropped/added) at multiple areas, sealed in a moisture absorption standard pouch (Moisture absorption-kun (registered trademark)/Maruto Sangyo Co., Ltd.), and stored in the refrigerator. Next, after chilled storing the blood-spotted filter paper for 2 days, 2 weeks (14 days or 15 days), or 1 month (30 days), the blood-spotted areas were cut out and collected in a 2 mL microtube. After adding 300 μL of a mixed aqueous solution of internal standard substances (NAD+-d4 and NMN-d4/Toronto Research Chemicals, Inc.) thereto and stirring using a vortex mixer, the mixture was mixed with a micromixer (TOMY MICRO TUBE MIXER MT-400, stirring speed 5) for 30 minutes at room temperature. The blood extract solution was dispensed by each 150 μL portion into a microtube, 300 μL of acetonitrile was added thereto, and the mixture was stirred using a vortex mixer, followed by centrifugation (24,250×g, 10 minutes, 4° C.). After centrifugation, 40 μL of the supernatant was dispensed into a vial and measured by LC-MS/MS.
In contrast, as a sample for initial values, 5 μL of blood was collected into a 2 mL microtube (no spotted filter paper), and 300 μL of a mixed aqueous solution of internal standard substances (NAD-d4 and NMN-d4/Toronto Research Chemicals, Inc.) was added thereto and stirred using a vortex mixer, and then the mixture was mixed using a micromixer (TOMY MICRO TUBE MIXER MT-400, stirring speed 5) for 30 minutes at room temperature. The blood extract solution was dispensed by each 150 μL portion into a microtube, 300 μL of acetonitrile was added thereto, and the mixture was stirred using a vortex mixer, followed by centrifugation (24,250×g, 10 minutes, 4° C.). After centrifugation, 40 μL of the supernatant was dispensed into a vial and measured by LC-MS/MS.

[4] = human blood on 903 card, room temperature storage for 2 weeks
[5] = human blood on 903 card, room temperature storage for 2 days
[6] = human blood on DMPK-A card, room temperature storage for 2 weeks
[7] = human blood on DMPK-A card, room temperature storage for 2 days
[8] = human blood on DMPK-B card, room temperature storage for 1 week
[9] = human blood on DMPK-B card, room temperature storage for 2 weeks
[10] = human blood on DMPK-B card, room temperature storage for 2 days
[11] = human blood on DMPK-C card, room temperature storage for 2 weeks
[12] = human blood on DMPK-C card, room temperature storage for 2 days
[13] = human blood on 903 card, chilled storage for 1 month
[14] = human blood on 903 card, chilled storage for 2 weeks
[15] = human blood on 903 card, chilled storage for 2 days
[16] = human blood on DMPK-A card, chilled storage for 1 month
[17] = human blood on DMPK-A card, chilled storage for 2 weeks
[18] = human blood on DMPK-A card, chilled storage for 2 days
[19] = human blood on DMPK-B card, chilled storage for 1 month
[20] = human blood on DMPK-B card, chilled storage for 2 weeks
[21] = human blood on DMPK-B card, chilled storage for 2 days
[22] = human blood on DMPK-C card, chilled storage for 1 month
[23] = human blood on DMPK-C card, chilled storage for 2 weeks
[24] = human blood on DMPK-C card, chilled storage for 2 days

## NC(=O)c1ccc[n+]([C@@H]2O[C@H](COP(=O)([O-])OP(=O)(O)OC[C@H]3O[C@@H](n4cnc5c(N)ncnc54)[C@H](O)[C@@H]3O)[C@@H](O)[C@H]2O)c1 [NAD+, nicotinamide adenine dinucleotide]
[1]; 903 card chilled 15 days, extract solution 100% water
  Storage stability (mean): 266.3%
[1]; 903 card chilled 15 days, extract solution with twice the amount of acetonitrile added
  Storage stability (mean): 92.1%
[1]; DMPK-A card chilled 15 days, extract solution 100% water
  Storage stability (mean): 145.8%
[1]; DMPK-A card chilled 15 days, extract solution with twice the amount of acetonitrile added
  Storage stability (mean): 89.6%
[1]; DMPK-B card chilled 15 days, extract solution 100% water
  Storage stability (mean): 93.1%
[1]; DMPK-B card chilled 15 days, extract solution with twice the amount of acetonitrile added
  Storage stability (mean): 100.0%
[1]; DMPK-C card chilled 15 days, extract solution 100% water
  Storage stability (mean): 200.6%
[1]; DMPK-C card chilled 15 days, extract solution with twice the amount of acetonitrile added
  Storage stability (mean): 73.6%
[2]; [4]
  Storage stability, Evaluation: Average (Average (≥50%))
  Storage stability (mean): 50.3%
[2]; [5]
  Storage stability, Evaluation: Average (Average (≥50%))
  Storage stability (mean): 66.2%
[2]; [6]
  Storage stability, Evaluation: Average: (Average (≥50%))
  Storage stability (mean): 51.6%
[2]; [7]
  Storage stability, Evaluation: Good: (Good (≥70%))
  Storage stability (mean): 71.6%
[2]; [8]
  Storage stability, Evaluation: Excellent: (Excellent (≥85%))
  Storage stability (mean): 87.2%
[2]; [9]
  Storage stability, Evaluation: Average: (Average (≥50%))
  Storage stability (mean): 67.6%
[2]; [10]
  Storage stability, Evaluation: Good: (Good (≥70%))
  Storage stability (mean): 82.0%
[2]; [11]
  Storage stability, Evaluation: Average (Average (≥50%))
  Storage stability (mean): 50.2%
[2]; [12]
  Storage stability, Evaluation: Average (Average (≥50%))
  Storage stability (mean): 55.9%
[3]; [13]
  Storage stability, Evaluation: Good: (Good (≥70%))
  Storage stability (mean): 82.6%
[3]; [14]
  Storage stability, Evaluation: Good: (Good (≥70%))
  Storage stability (mean): 77.2%
[3]; [15]
  Storage stability, Evaluation: Good: (Good (≥70%))
  Storage stability (mean): 74.1%
[3]; [16]
  Storage stability, Evaluation: Good: (Good (≥70%))
  Storage stability (mean): 71.8%
[3]; [17]
  Storage stability, Evaluation: Good: (Good (≥70%))
  Storage stability (mean): 79.1%
[3]; [18]
  Storage stability, Evaluation: Good: (Good (≥70%))
  Storage stability (mean): 81.5%
[3]; [19]
  Storage stability, Evaluation: Good: (Good (≥70%))
  Storage stability (mean): 79.8%
[3]; [20]
  Storage stability, Evaluation: Excellent: (Excellent (≥85%))
  Storage stability (mean): 87.8%
[3]; [21]
  Storage stability, Evaluation: Good: (Good (≥70%))
  Storage stability (mean): 80.7%
[3]; [22]
  Storage stability, Evaluation: Average: (Average (≥50%))
  Storage stability (mean): 54.3%
[3]; [23]
  Storage stability, Evaluation: Average: (Average (≥50%))
  Storage stability (mean): 66.6%
[3]; [24]
  Storage stability, Evaluation: Good: (Good (≥70%))
  Storage stability (mean): 70.1%

## NC(=O)c1ccc[n+]([C@@H]2O[C@H](COP(=O)([O-])O)[C@@H](O)[C@H]2O)c1 [NMN, nicotinamide mononucleotide]
[2]; [5]
  Storage stability, Evaluation: Good (Good (≥70%))
  Storage stability (mean): 79.8%
[2]; [6]
  Storage stability, Evaluation: Excellent: (Excellent (≥85%))
  Storage stability (mean): 124.2%
[2]; [7]
  Storage stability, Evaluation: Excellent: (Excellent (≥85%))
  Storage stability (mean): 122.7%
[2]; [8]
  Storage stability, Evaluation: Average: (Average (≥50%))
  Storage stability (mean): 69.1%
[2]; [9]
  Storage stability, Evaluation: Average: (Average (≥50%))
  Storage stability (mean): 66.6%
[2]; [10]
  Storage stability, Evaluation: Excellent: (Excellent (≥85%))
  Storage stability (mean): 96.5%
[3]; [13]
  Storage stability (mean): 56.3%
[3]; [14]
  Storage stability, Evaluation: Average: (Average (≥50%))
  Storage stability (mean): 64.5%
[3]; [15]
  Storage stability, Evaluation: Average: (Average (≥50%))
  Storage stability (mean): 60.1%
[3]; [16]
  Storage stability, Evaluation: Excellent: (Excellent (≥85%))
  Storage stability (mean): 99.9%
[3]; [17]
  Storage stability, Evaluation: Good: (Good (≥70%))
  Storage stability (mean): 80.6%
[3]; [18]
  Storage stability, Evaluation: Good: (Good (≥70%))
  Storage stability (mean): 73.1%
[3]; [19]
  Storage stability, Evaluation: Good: (Good (≥70%))
  Storage stability (mean): 78.6%
[3]; [20]
  Storage stability, Evaluation: Excellent: (Excellent (≥85%))
  Storage stability (mean): 93.6%
[3]; [21]
  Storage stability, Evaluation: Excellent: (Excellent (≥85%))
  Storage stability (mean): 95.4%
[3]; [23]
  Storage stability, Evaluation: Average: (Average (≥50%))
  Storage stability (mean): 52.9%
[3]; [24]
  Storage stability, Evaluation: Average: (Average (≥50%))
  Storage stability (mean): 68.4%

From patent publication US20250085283A1, “METHOD FOR QUANTIFYING NICOTINAMIDE ADENINE DINUCLEOTIDE (NAD+) OR NICOTINAMIDE MONONUCLEOTIDE (NMN), AND KIT AND FILTER PAPER FOR PERFORMING THE METHOD” (Teijin Limited, priority 2022, published 2025)
